The source of these data is patent US6288091A, “Antiherpes virus compounds and methods for their preparation and use” (Boehringer Ingelheim Ltd., priority 1999, dated 2001).

One series addresses T1, HSV-1 helicase-primase (Human herpesvirus 1, UniProt P10189+P10236).
T1 construct: made in house; host or cells: Sf21 insect cells triply infected with recombinant baculoviruses (UL5, UL8, UL52)
As to the kind of experiment: HSV-1 DNA-dependent ATPase assay (inhibition of HSV-1 helicase-primase). It counts as biochemical. An outline of the steps:
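ATP hydrolysis was measured as inorganic phosphate (malachite green/molybdate, 650 nm) after 20 min at 34°. Reaction: 3 μg/mL purified Sf21-expressed UL5/UL8/UL52 helicase-primase, 25 μM single-stranded M13 DNA hybridized to 68-mer, 4 mM ATP, pH 7.5 HEPES buffer, 3.3% DMSO. Net absorbance change with and without inhibitor gave DNA-dependent ATPase activity.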

Series [1] in a line: Inhibition of HCMV replication, plaque reduction assay (PRA, Hs-68 cells). It counts as cell-based, Human Cytomegalovirus (HCMV). The conditions noted are these: human. The method in brief: (§1)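 Hs-68 monolayers (80–90% confluent) were infected with ~50 PFU HCMV AD169 for 2 h at 37°, then given compound in DMEM/5% inactivated FBS, refreshed after 4 days and kept 4 more days. Plaques were counted after formaldehyde fixation and crystal violet staining. EC50 derives from percent plaque reduction versus untreated wells.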
In general terms: Plaque reduction counts the foci of infection that form in a cell layer.

The test system of series [2] is HCMV (strain AD169). Described as above. It is filed as cell-based, Human Cytomegalovirus (HCMV). The conditions noted are these: read-out: PRA CMV EC50. The method in brief:
as §1

A further series deals with HSV-1 strain F or KOS. As to the kind of experiment: Inhibition of herpes simplex virus (HSV-1) replication in cell culture (BHK-21 cells, glycoprotein C ELISA). It counts as cell-based. An outline of the steps:
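Replication readout: ELISA for HSV-1 late glycoprotein C (mAb C11, peroxidase-OPD, 450 nm) on glutaraldehyde-fixed cells. Monolayers (~50,000 cells/well) were infected with strain F or KOS (MOI 0.05 PFU/cell), then incubated 24 h at 37° with compound in 2% FBS α-MEM. EC50 derived from % inhibition.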
(ELISA stands for enzyme-linked immunosorbent assay.)

In series [3] the test system is HCMV (strain AD169). The series can be described thus: Inhibition of HCMV replication, ELISA assay (Hs-68 cells). It counts as cell-based, Human Cytomegalovirus (HCMV). The conditions noted are these: read-out: ELISA CMV EC50. The method, then: (§2) C) Inhibition of Human Cytomegalovirus (HCMV) Replication
(§3) The effect of compounds on the replication of HCMV has been measured by using an ELISA-based assay (ELISA) and a plaque reduction assay (PRA).
(§4) Hs-68 cells (ATCC # CRL 1635) were seeded in 96 well microtiter plates at 10,000 cells/well in 100 μL of DMEM medium (Gibco Canada Inc.) supplemented with 10% fetal bovine serum (FBS, Gibco Canada Inc.). The plates were incubated for 3 days at 37° to allow the cells to reach 80-90% confluency prior to the assay.
(§5) The medium was removed from wells by aspiration. The cells then were infected at a multiplicity of infection (MOI) of 0.01 PFU/cell with 50 μL of HCMV (strain AD169, ATCC VR-538) in DMEM medium supplemented with 5% heat inactivated FBS (assay medium). The virus was allowed to adsorb to cells for 2 h at 37°. Following viral adsorption, the medium was removed from the wells by aspiration. The cells were washed twice with 200 μL of assay medium to remove unabsorbed virus. The cells were then incubated with or without 100 μL of appropriate concentrations of test reagent in assay medium. After 8 days of incubation at 37°, the extent of viral replication was determined by an ELISA assay which detects the late structural protein p28 of HCMV.
(§6) Eight days after infection, the medium was aspirated from the wells. Non-specific binding sites were blocked by adding 200 μL of phosphate buffered saline containing 1% (w/v) bovine serum albumin (blocking buffer) to each well and incubating the plates for 30 min at room temperature. After removal of the blocking buffer by aspiration, the cells were fixed with 100 μL of cold ethanol-acetone solution (95:5) per well. The plates were placed at -20° for 30 min. The plates were washed 4 times with phosphate buffered saline containing 0.05% (v/v) polyoxyethylene sorbitan monolaurate (Tween®). Thereafter, 100 μL of mAb UL99 (Advanced Biotechnologies Inc., #13-130-100) recognizing HCMV protein p28 was added to each wells and plates were incubated for 2 h at room temperature. The plates were washed four times with 200 μL of the above-noted phosphate buffered saline/Tween-20® solution. The cells were then incubated with 100 μL of sheep anti-mouse IgGγ horseradish peroxidase conjugated for 2 h at room temperature. The plates were then washed four times with 200 μL of above-noted phosphate buffered saline/Tween-20® solution. Thereafter, 100 μL of ortho phenylenediamine dihydrochloride (OPD, Gibco Canada Inc.) solution was added to each well and the plates were agitated on a microplate shaker for 30 min in the dark. Color development was monitored at 450 nm using a microplate spectrophotometer.
(§7) The SAS program was used to calculate the % inhibition of viral replication and to generate EC50 values.
(§8) The EC50 values obtained according to this assay method for certain thiazolylphenyl derivatives of this invention are listed in the following tables under the heading ELISA CMV.

Assay in series [4]: as above
It counts as cell-based, Human Cytomegalovirus (HCMV). To be noted: human, read-out: Cytotoxic at this concentration (footnote *, ELISA CMV column). The method, then: as §2, §3, §4, §5, §6, §7, §8

[5] abbreviates: Group 2 Table 1 entries, read-out: Cytotoxic at this concentration (footnote *, PRA CMV).
The mark [6] stands for this setting: Human betaherpesvirus 5, AD169, Hs68, Group 2 Table 1 entries.
Setting [7] is: Human alphaherpesvirus 1, BHK-21, Group 2 Table 1 entries.
Where [8] appears, read: Human betaherpesvirus 5, AD169, Hs68, Group 2 Table 2 entries.
The mark [9] stands for this setting: Human alphaherpesvirus 1, BHK-21, Group 1 Table 1 entries.
[10] abbreviates: Group 1 Table 1 entries, read-out: Cytotoxic at this concentration (footnote *, PRA CMV).
Where [11] appears, read: Human betaherpesvirus 5, AD169, Hs68, Group 1 Table 1 entries.
Where [12] appears, read: Human betaherpesvirus 5, AD169, Hs68, Group 1 Table 2 entries.

T1 sequence (P10192 whole entry): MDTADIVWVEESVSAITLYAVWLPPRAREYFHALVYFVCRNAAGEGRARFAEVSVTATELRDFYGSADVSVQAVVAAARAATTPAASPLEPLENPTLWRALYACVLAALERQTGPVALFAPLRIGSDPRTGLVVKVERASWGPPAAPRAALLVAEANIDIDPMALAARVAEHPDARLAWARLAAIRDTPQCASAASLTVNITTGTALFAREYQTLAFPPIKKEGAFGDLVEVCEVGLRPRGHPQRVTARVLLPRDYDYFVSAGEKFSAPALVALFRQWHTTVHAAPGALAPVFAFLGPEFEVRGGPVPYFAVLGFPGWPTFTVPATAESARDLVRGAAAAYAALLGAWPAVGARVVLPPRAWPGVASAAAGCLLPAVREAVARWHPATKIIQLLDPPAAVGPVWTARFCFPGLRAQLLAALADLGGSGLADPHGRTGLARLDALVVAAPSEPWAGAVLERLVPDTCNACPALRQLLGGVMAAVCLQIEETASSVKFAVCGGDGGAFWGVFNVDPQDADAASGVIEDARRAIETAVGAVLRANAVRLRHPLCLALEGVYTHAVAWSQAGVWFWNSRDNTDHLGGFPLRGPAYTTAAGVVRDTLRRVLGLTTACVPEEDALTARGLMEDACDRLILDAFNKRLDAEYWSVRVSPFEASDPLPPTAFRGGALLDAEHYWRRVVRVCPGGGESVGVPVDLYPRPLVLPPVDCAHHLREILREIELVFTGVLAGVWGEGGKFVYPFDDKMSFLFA
T1 sequence (P10236 whole entry): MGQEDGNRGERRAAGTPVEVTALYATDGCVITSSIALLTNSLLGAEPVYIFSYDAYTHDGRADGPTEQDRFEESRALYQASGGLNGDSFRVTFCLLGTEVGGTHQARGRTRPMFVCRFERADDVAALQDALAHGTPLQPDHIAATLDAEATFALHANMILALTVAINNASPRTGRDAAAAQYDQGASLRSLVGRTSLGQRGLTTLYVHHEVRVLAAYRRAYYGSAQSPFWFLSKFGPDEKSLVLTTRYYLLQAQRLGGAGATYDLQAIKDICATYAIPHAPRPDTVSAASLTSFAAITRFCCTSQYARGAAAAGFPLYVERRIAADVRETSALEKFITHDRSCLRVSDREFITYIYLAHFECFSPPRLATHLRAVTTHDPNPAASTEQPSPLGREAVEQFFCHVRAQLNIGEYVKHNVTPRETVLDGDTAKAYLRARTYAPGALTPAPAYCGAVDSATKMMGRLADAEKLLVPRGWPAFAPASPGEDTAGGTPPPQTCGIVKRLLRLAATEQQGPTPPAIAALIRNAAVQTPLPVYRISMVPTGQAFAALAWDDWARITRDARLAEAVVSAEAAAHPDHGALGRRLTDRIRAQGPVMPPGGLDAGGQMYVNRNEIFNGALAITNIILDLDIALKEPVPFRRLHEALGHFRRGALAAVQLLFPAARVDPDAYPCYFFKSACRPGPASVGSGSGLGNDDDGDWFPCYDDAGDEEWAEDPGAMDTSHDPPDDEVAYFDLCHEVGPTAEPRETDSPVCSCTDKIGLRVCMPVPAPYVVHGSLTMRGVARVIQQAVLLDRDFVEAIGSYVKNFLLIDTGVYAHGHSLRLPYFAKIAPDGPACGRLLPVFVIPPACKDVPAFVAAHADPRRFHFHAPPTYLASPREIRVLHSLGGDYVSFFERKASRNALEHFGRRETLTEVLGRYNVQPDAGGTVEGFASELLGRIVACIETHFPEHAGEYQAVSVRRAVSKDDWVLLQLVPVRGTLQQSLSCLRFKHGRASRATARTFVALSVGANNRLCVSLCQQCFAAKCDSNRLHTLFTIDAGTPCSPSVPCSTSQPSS
T1 sequence (P10189 whole entry): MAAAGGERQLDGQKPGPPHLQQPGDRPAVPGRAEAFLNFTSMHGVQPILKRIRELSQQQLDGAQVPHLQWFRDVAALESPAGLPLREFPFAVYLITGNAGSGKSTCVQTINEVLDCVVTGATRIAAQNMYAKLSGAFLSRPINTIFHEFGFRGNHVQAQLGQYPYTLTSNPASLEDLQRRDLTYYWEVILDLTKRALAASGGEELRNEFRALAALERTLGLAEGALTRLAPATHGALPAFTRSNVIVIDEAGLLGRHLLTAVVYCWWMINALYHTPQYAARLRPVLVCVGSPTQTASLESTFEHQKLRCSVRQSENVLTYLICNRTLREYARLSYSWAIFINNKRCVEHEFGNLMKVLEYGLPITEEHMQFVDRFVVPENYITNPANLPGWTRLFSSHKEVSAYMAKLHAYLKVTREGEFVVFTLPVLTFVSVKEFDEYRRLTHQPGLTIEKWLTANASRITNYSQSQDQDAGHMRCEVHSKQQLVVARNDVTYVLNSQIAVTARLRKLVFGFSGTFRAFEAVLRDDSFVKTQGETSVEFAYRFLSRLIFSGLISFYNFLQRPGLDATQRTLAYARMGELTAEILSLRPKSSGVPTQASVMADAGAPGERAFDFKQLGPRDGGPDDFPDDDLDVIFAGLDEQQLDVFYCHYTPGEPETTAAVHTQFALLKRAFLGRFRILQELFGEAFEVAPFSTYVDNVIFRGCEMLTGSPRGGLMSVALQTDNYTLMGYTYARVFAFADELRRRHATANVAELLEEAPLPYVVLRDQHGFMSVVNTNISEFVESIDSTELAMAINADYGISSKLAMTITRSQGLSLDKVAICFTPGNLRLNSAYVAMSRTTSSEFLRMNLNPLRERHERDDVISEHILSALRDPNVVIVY

The IC50 is the point on the concentration scale where inhibition reaches its midpoint. Broadly, the EC50 is the midpoint of the concentration-response curve. `Nc1nc(-c2ccc(NC(=O)NCc3cccc(F)c3)cc2)cs1` [Example 22] registered an IC50 on HSV-1 helicase-primase (Group 2 Table 1 entries) of 1.3 µM. Also, in series [1] (setting [5]), the MCC at 192 h stood at 8 µM. In addition, the EC50 with HCMV (strain AD169) [2] (setting [6]) was > 8 µM.
`Nc1nc(-c2ccc(NC(=O)NCCc3ccccn3)cc2)cs1` [Example 3] registered an IC50 on HSV-1 helicase-primase (Group 2 Table 1 entries) of 5.2 µM. The EC50 is 3.6 µM in the series with HSV-1 strain F or KOS (setting [7]) and > 93 µM in the series on HCMV (strain AD169) [2] (setting [6]). In addition, the MCC at 192 h in series [1] (setting [5]) is 93 µM.
As to `Nc1nc(-c2ccc(NC(=O)NCc3ccccc3)cc2)cs1` [Example 20], half-maximal inhibition on HSV-1 helicase-primase (Group 2 Table 1 entries) (IC50) required 0.9 µM. In addition, the MCC at 192 h in series [1] (setting [5]) was found to be 45 µM. Further, the EC50 in the series with HCMV (strain AD169) [2] (setting [6]) was > 45 µM.
Turning to `Nc1nc(-c2ccc(NC(=O)C(=O)N(Cc3ccccc3)Cc3ccccc3)cc2)cs1` [Example 2], the EC50 came out at 0.77 µM in the series on HSV-1 strain F or KOS (Human alphaherpesvirus 1, BHK-21, Group 2 Table 2 entries); 10 µM in the series with HCMV (strain AD169) [3] (setting [8]); 12 µM in the series on HCMV (strain AD169) [2] (setting [8]). In addition, the MCC at 192 h in series [1] (Group 2 Table 2 entries, read-out: Cytotoxic at this concentration (footnote *, PRA CMV)) is 12 µM.
`Nc1nc(-c2ccc(NC(=O)CN(CC3CCCCC3)S(=O)(=O)N3CCOCC3)cc2)cs1` [Example 107] returned an EC50 in the series with HSV-1 strain F or KOS (setting [9]) of 0.83 µM. Besides, the MCC at 192 h in series [1] (setting [10]) turned out to be 12 µM.
At HSV-1 helicase-primase (Group 1 Table 5 entries), `Nc1nc(-c2ccc(NC(=O)[C@H](Cc3ccccc3)NC(=O)C3CCCCC3)cc2)cs1` [Example 1] had an IC50 of 0.052 µM. The EC50 came to 0.079 µM with HSV-1 strain F or KOS (Human alphaherpesvirus 1, BHK-21, Group 1 Table 5 entries) and 14 µM with HCMV (strain AD169) [3] (Human betaherpesvirus 5, AD169, Hs68, Group 1 Table 5 entries). Also, the MCC at 192 h in series [4] (Group 1 Table 5 entries) is 14 µM.
For `Nc1nc(-c2ccc(NC(=O)CN(Cc3ccccc3)C(=O)Cc3cccnc3)cc2)cs1` [Example 113], the IC50 on HSV-1 helicase-primase (Group 1 Table 1 entries) was determined as 2 µM. The MCC at 192 h in series [1] (setting [10]) was found to be 50 µM. In addition, the EC50 with HCMV (strain AD169) [2] (setting [11]) is > 50 µM.
`Nc1nc(-c2ccc(NC(=O)NCCc3ccc(F)cc3)cc2)cs1` [Example 24]: the half-inhibitory concentration (IC50) against HSV-1 helicase-primase (Group 2 Table 1 entries) turned out to be 30 µM. Moreover, the MCC at 192 h in series [1] (setting [5]) came to 5 µM. The EC50 in the series on HCMV (strain AD169) [2] (setting [6]) is > 5 µM.
On the same counts, the results for `Nc1nc(-c2ccc(NC(=O)NCCCn3ccnc3)cc2)cs1` [Example 10] are 4.7 µM, 48 µM and > 48 µM.
As for `Nc1nc(-c2ccc(NC(=O)NCc3ccc(Cl)cc3)cc2)cs1` [Example 21], the IC50 against HSV-1 helicase-primase (Group 2 Table 1 entries) was found to be 7.2 µM. Moreover, in series [1] (setting [5]), the MCC at 192 h was found to be 1 µM. In the series with HCMV (strain AD169) [2] (setting [6]), the EC50 was > 1 µM.
On the same counts, the results for `Nc1nc(-c2ccc(NC(=O)NCCN(Cc3ccccc3)Cc3ccccc3)cc2)cs1` [Example 16] are 1.6 µM, 5 µM and > 5 µM.
On to `Nc1nc(-c2ccc(NC(=O)NCc3ccccc3F)cc2)cs1` [Example 23], for which, at HSV-1 helicase-primase (Group 2 Table 1 entries), the IC50 was found to be 2 µM. Moreover, in series [1] (setting [5]), the MCC at 192 h was 4 µM. Besides, in the series on HCMV (strain AD169) [2] (setting [6]), the EC50 was > 4 µM.
Turning to `CCCC(CCC)N(CC(=O)Nc1ccc(-c2csc(N)n2)cc1)C(=O)OC(C)(C)C` [Example 111], half-maximal inhibition on HSV-1 helicase-primase (Group 1 Table 1 entries) (IC50) required 0.37 µM. Also, the figures for the EC50 with HSV-1 strain F or KOS (setting [9]) and in the series on HCMV (strain AD169) [3] (setting [11]) were 0.24 µM and 4 µM, respectively. Besides, the MCC at 192 h in series [4] (Group 1 Table 1 entries) came out at 4 µM.
`CN(C)c1ccc(CNC(=O)Nc2ccc(-c3csc(N)n3)cc2)cc1` [Example 25] displayed an IC50 against HSV-1 helicase-primase (Group 2 Table 1 entries) of 2.9 µM. Further, the MCC at 192 h in series [1] (setting [5]) amounted to 18 µM. For the same compound, the EC50 with HCMV (strain AD169) [2] (setting [6]) is > 18 µM.
As to `CN(CCc1ccccn1)C(=O)[C@H](Cc1ccccc1)NC(=O)Nc1ccc(-c2csc(N)n2)cc1` [Example 9], the EC50 in the series on HSV-1 strain F or KOS (setting [7]) was 2.9 µM; in the series on HCMV (strain AD169) [3] (setting [6]), 4.1 µM; with HCMV (strain AD169) [2] (setting [6]), 36 µM.
`Nc1nc(-c2ccc(NC(=O)CNCc3ccccn3)cc2)cs1` [Example 12]: the midpoint of inhibition against HSV-1 helicase-primase (Group 1 Table 1 entries), the IC50, lay at 8 µM. Moreover, the figures for the EC50 with HSV-1 strain F or KOS (setting [9]) and with HCMV (strain AD169) [2] (setting [11]) were 1.5 µM and 84 µM, respectively. Further, the MCC at 192 h in series [1] (setting [10]) amounted to 84 µM.
On to `Cc1ccccc1CN(CC(=O)Nc1ccc(-c2csc(N)n2)cc1)C(=O)Cc1ccccn1` [Example 127], for which the midpoint of inhibition against HSV-1 helicase-primase (Group 1 Table 1 entries), the IC50, lay at 0.99 µM. The EC50 with HCMV (strain AD169) [3] (setting [11]) is 8.8 µM; in the series on HCMV (strain AD169) [2] (setting [11]), 25 µM. For the same compound, the MCC at 192 h in series [1] (setting [10]) is 25 µM.
At HSV-1 helicase-primase (Group 2 Table 1 entries), `C[C@H](NC(=O)Nc1ccc(-c2csc(N)n2)cc1)c1ccccc1` [Example 26] gave an IC50 of 0.59 µM. In series [1] (setting [5]), the MCC at 192 h came out at 74 µM. Besides, in the series on HCMV (strain AD169) [2] (setting [6]), the EC50 is > 74 µM.
In the case of `CCCCNC(=O)Nc1ccc(-c2csc(N)n2)cc1` [Example 2], the EC50 in the series with HSV-1 strain F or KOS (setting [7]) worked out at 3.5 µM; in the series with HCMV (strain AD169) [3] (setting [6]), 0.6 µM; in the series with HCMV (strain AD169) [2] (setting [6]) it was 12 µM.
For `CC(C)(C)OC(=O)N(CCC(=O)Nc1ccc(-c2csc(N)n2)cc1)C1CCc2ccccc21` (stereo not drawn) [Example 13], the EC50 with HSV-1 strain F or KOS (Human alphaherpesvirus 1, BHK-21, Group 1 Table 2 entries) came out at 3.4 µM; with HCMV (strain AD169) [3] (setting [12]) it was 37 µM; in the series with HCMV (strain AD169) [2] (setting [12]), 9 µM. Further, the MCC at 192 h in series [1] (Group 1 Table 2 entries, read-out: Cytotoxic at this concentration (footnote, PRA CMV)) turned out to be 9 µM.
